Experimental data as given in US20060094775A1, “Remedy for corneal ulcer” (priority 2003, published 2006).
Entries after “also recorded” stand apart in the source; their conditions may differ.

Assays:
[1] = system: rabbit corneal stromal cells; experiment: Measurement of collagen degradation activity after three-dimensional collagen gel culture (hydroxyproline per well); type: cell-based; settings: IL-1β 0.1 ng/ml, 48 hr three-dimensional culture, various concentrations
Protocol: (§1) Rabbit corneal stromal cells were prepared and cultured according to the description of Mishima et al., Invest. Ophthalmol. Vis. Sci. 28, 1521-6 (1987). The rabbits were sacrificed by overdose of sodium pentobarbital. Eyeballs were enucleated, sclera was incised to remove cornea. Stroma was separated from epithelium and endothelium. Corneal stromal cells were detached from stroma by digesting with collagenase (Collagenase from Clostridium histolyticum, Sigma (U.S.A.) #C-0130) (2 mg/ml) at 37° C. for 3-4 hr. The cells were cultured in MEM supplemented with 10% fetal bovine serum (FBS), grown in an incubator (37° C. humidity 100%) in 5% CO2 and then passaged in MEM containing 10% FBS.
Collagen gel was prepared according to the manual of Nitta gelatin. To be specific, the obtained rabbit corneal stromal cells were washed with PBS(−), 0.05% Trypsin (1 ml) was added thereto, and the mixture was left in a CO2 incubator for several min to detach the cells. […] The number of the cells was counted with Burker-Turk hemocytometer (Kayagaki Irika Kogyo). […]
After three-dimensional culture, the medium was collected and non-degraded collagen fibril having a molecular weight exceeding 100 kDa was removed by ultrafiltration. […] The amount of the hydroxyproline in the hydrolysate was measured using an Ehrlich's reagent and a spectrophotometer (Bergman et al., Anal. Chem., 35, 1961-5 (1963)). […]

[2] = system: proMMP-9, MMP-9, proMMP-2 and MMP-2 in rabbit corneal stromal cells; experiment: Gelatin zymography of culture medium for MMP-2 and MMP-9 forms after three-dimensional culture; type: cell-based; settings: for effect on expression of MMPs and proMMPs (gelatin zymography): plasminogen addition, IL-1β 0.1 ng/ml (Example 2, FIG. 9)
Protocol: as §1
Collagen gel was prepared according to the manual of Nitta gelatin. To be specific, the obtained rabbit corneal stromal cells were washed with PBS(−), 0.05% Trypsin (1 ml) was added thereto, and the mixture was left in a CO2 incubator for several min to detach the cells. MEM (5 ml) containing 10% FBS was added to quench the trypsin reaction. The cell suspension was transferred to a 15 ml centrifuge tube, and centrifuged at 1500 rpm for 5 min. The supernatant was removed and the cells were suspended in a constant amount of serum free MEM. The number of the cells was counted with Burker-Turk hemocytometer (Kayagaki Irika Kogyo). The supernatant was removed by centrifugation at 1500 rpm for 5 min. Serum free MEM was added to give a cell suspension (2200000 cells/ml). A. acid-solubilized Type I collagen (3 mg/ml), B. 5-fold concentration of DMEM, C. reconstruction buffer (0.05N NaOH, 0.26 M NaHCO3, 0.2 M HEPES, pH 7.3) and D. a cell suspension (2.2×10^6 cells/ml) were mixed at a ratio of A:B:C:D=7:2:1:1 while cooling on ice. The collagen solution was placed in a 24 well culture plate at 0.5 ml/well, and stood in an incubator at 37° C. 5% CO2 for 0.5-5 hr. Then, 0.5 ml of serum free MEM containing IL-1β (0.1 ng/mL) and various concentrations of triptolide or dexamethasone was overlaid and cultured for 48 hr. […]

[3] = system: glycosylated proMMP-1, proMMP-1, MMP-1, proMMP-3 and MMP-3 in rabbit corneal stromal cells; experiment: Western blot of culture medium for MMP-1 and MMP-3 forms after three-dimensional culture; type: cell-based; settings: IL-1β addition
Protocol: as §1
Collagen gel was prepared according to the manual of Nitta gelatin. To be specific, the obtained rabbit corneal stromal cells were washed with PBS(−), 0.05% Trypsin (1 ml) was added thereto, and the mixture was left in a CO2 incubator for several min to detach the cells. MEM (5 ml) containing 10% FBS was added to quench the trypsin reaction. The cell suspension was transferred to a 15 ml centrifuge tube, and centrifuged at 1500 rpm for 5 min. The supernatant was removed and the cells were suspended in a constant amount of serum free MEM. The number of the cells was counted with Burker-Turk hemocytometer (Kayagaki Irika Kogyo). The supernatant was removed by centrifugation at 1500 rpm for 5 min. […]

[4] = system: TIMP-1 production (mRNA) in rabbit corneal stromal cells; experiment: RT-PCR of TIMP-1 mRNA after three-dimensional culture; type: cell-based; settings: IL-1β 0.1 ng/ml; dexamethasone 1 nM, triptolide 3 μM
Protocol: as §1
Collagen gel was prepared according to the manual of Nitta gelatin. […] The number of the cells was counted with Burker-Turk hemocytometer (Kayagaki Irika Kogyo). […]
After three-dimensional culture, collagenase was added to dissolve the collagen gel, and the cells were collected. […] This cDNA, QuantiTect SYBR Green PCR Master Mix solution (QuantiTect-SYBR Green PCR kit, manufactured by Qiagen, Germany), nuclease free water and rabbit TIMP-1 primer (synthesis at Nippon Gene Institute, Han et al., Nagoya J. Med. Sci. 62, 115-126 (1999)) were mixed, and the expression amount of TIMP-1 mRNA was examined using LightCycler (manufactured by Roche Molecular Biochemicals, Germany).

[5] = system: proMMPs 1 and 3 in human synovial fluid fibroblast; settings: cited from earlier work

Row | SMILES | effect on IL-1β induced collagen degradation (amount of degraded collagen as hydroxyproline per well) [1] | effect on expression of MMPs and proMMPs (gelatin zymography) [2] | effect on expression and activation of proMMPs (Western blot) ([3]; 60 mg/ml plasminogen addition) | effect on expression of proMMPs (Western blot) ([3]; plasminogen non-addition) | effect on expression and activation of proMMPs (gelatin zymography) ([2]; 60 mg/ml plasminogen addition, IL-1β addition (Example 1)) | effect on TIMP-1 production (relative copy number of mRNA) [4] | effect on production of proMMPs 1 and 3 [5]
1 | CC(C)[C@]12O[C@H]1[C@@H]1O[C@@]13[C@@]1(C)CCC4=C(COC4=O)[C@@H]1C[C@@H]1O[C@@]13C2OC(=O)CCC(=O)[O-].[Na+] (stereo partly drawn) [triptolide succinate sodium salt] | suppress IL-1β induced collagen degradation in a concentration dependent manner | suppresses increase of MMP-2 and activation of MMP-9 | – | – | – | – | –
2 | CC(C)[C@]12O[C@H]1[C@@H]1O[C@]13[C@]1(O[C@H]1C[C@H]1C4=C(CC[C@@]13C)C(=O)OC4)[C@@H]2O [triptolide] | suppress IL-1β induced collagen degradation in a concentration dependent manner; also recorded: suppresses IL-1β induced collagen degradation in a concentration dependent manner | suppresses increase of proMMP-2 and MMP-2, as well as activation of proMMP-9 | suppresses increase and activation of glycosylated proMMP-1, proMMP-1 and proMMP-3 | suppresses increase of glycosylated proMMP-1, proMMP-1 and proMMP-3 induced by IL-1β | activation of proMMP-9 | does not | suppresses production of proMMPs 1 and 3
